The viability is a per cent measure of how many cells are alive, often set against a control. Low values mean a greater loss of cells, high ones better survival. In general, EC50 refers to the concentration needed to bring the measured effect to its halfway point.

Where two headings read alike, the source gives them in different places.

The record followed here is US9801854B1, “Slow release formulations of cell cycle regulators and anti-cancer agents for local treatment of solid cancer” (THERACOAT LTD., priority 2014, dated 2017).

Type in all cases: cell-based, human
The test system of assay [1] is RT-4 cells. Nature of the assay: Cell cycle analysis by flow cytometry (PI staining) after HU exposure and withdrawal. The settings on record: 1 mM HU for 20 hours, wash, 2-10 hours without drug, majority in S phase 4 to 8 hours after wash. The procedure:
(§1) The human bladder cancer cell lines, UM-UC-3 and RT-4, were obtained from the ATCC and grown in RPMI 1640 medium (Gibco) supplemented with 10% v/v fetal calf serum (Gibco), 100 U/ml penicillin and 100 µg/ml streptomycin (Biological Industries). Cells were grown at 37° C., 5% CO2 in a humidified atmosphere and harvested using 0.25% w/v trypsin, 0.02% w/v EDTA. Cells were washed in media to inactivate trypsin before reseeding or analysis. A LSRII Flow cytometer or Cyan Flow Cytometer were used for determining DNA content and cell cycle distribution of UM-UC-3 and RT-4 cells. Cells were seeded in 6 well plates (10^6 cells/well) and incubated overnight. […] When sequential treatment was done, the second drug was administered immediately or 2-48 hours following the wash of the 1st treatment. The 2nd treatment was then applied for additional 2-48 hrs before analysis. […] PI staining was identified by using the red fluorescence (585+/−40 nm). In some experiments, cells harvested as for cell cycle determination were also stained with Annexin V or anti-activated Caspase-3 antibody for identifying apoptotic cells. Annexin V or activated Caspase-3 positive cells were identified using the green fluorescence (530+/−30 nm).
(In flow cytometry, cells or beads pass a laser one at a time.)

In assay [2] the test system is UM-UC-3 cells. Described as above. To be noted: 1 mM HU for 20 hours, wash, 2-10 hours without drug, majority in S phase 4 to 8 hours after wash. The method, then: as §1
In assay [3] the test system is UM-UC-3 cells. Nature of the assay: XTT cytotoxicity assay. To be noted: for viability at 1000 µM: Homo sapiens, 1 mM HU 20 hours, wash, untreated cells = 100%; for EC50: read-out: EC50 (cell viability). The method, then: Cells were washed in media to inactivate trypsin before reseeding or analysis.
Hydroxyurea concentrations were selected based upon concentration ranges known in the art.
XTT assay for cytotoxicity was then performed and plates were analyzed in an ELISA reader at a wave length of 490 nm.
Cells were pretreated with 1 mM HU (or DMSO-vehicle control) for 20 hours. […] The percentage of viable cells presented was calculated from untreated cells with viability of 100%.
UM-UC-3 cells were cultured in 96 well microculture plates. Cells were pretreated with 1 mM HU (or DMSO-vehicle control) for 20 hours. Cells were then washed. […] The percentage of viable cells presented was calculated from untreated cells with viability of 100%.
The methods used were as described in the other examples. Briefly, UM-UC-3 cells were cultured in 96 well microculture plates. Cells were pretreated with 1 mM HU (or DMSO-vehicle control) for 2 hours. […] The percentage of viable cells presented in the figures and table was calculated from untreated cells with viability of 100%.
In general terms: Tetrazolium dyes change colour on reduction, which living cells bring about.

`NC(=O)NO` [HU, Hydroxyurea]: the “cell cycle arrest / synchronization in S phase” value in assay [1] and in assay [2] was “cell cycle synchronization at the S phase” throughout. Also, the viability at 1000 µM in assay [3] (UMUC3, Example 3: UM-UC-3, 20 μM MMC, XTT 24 hours after MMC addition) was determined as 76.5%; in assay [3] (UMUC3, Example 4: UM-UC-3, 2 hours delay, 10 μM MMC 8 hours, XTT 48 hours after MMC addition), 59.6%.
`CO[C@@]12[C@H](COC(N)=O)C3=C(C(=O)C(C)=C(N)C3=O)N1C[C@@H]1N[C@@H]12` [MMC, Mitomycin C]: the EC50 in assay [3] (Example 3 conditions: UM-UC-3, MMC 24 hours, XTT) is around 20 µM; in assay [3] (Example 4 conditions: UM-UC-3, MMC 8 hours, XTT 48 hours after MMC addition) it was 10 µM.
